Article PMC8750417, “Intracellular Amplifiers of Reactive Oxygen Species Affecting Mitochondria as Radiosensitizers” (Cancers, 2021)

Experiments:
[1] = test system: chronic lymphocytic leukemia (CLL) cells; assay: Viability of primary CLL cells (CellTiter Glo); format: cell-based, human; settings: 48 h
Description: Determination of viability of primary cancer (CLL) and normal (MNC) cells in the […]
Clinical samples from chronic lymphocytic leukemia (CLL) patients (N=6, CLL cells) and healthy donors (N=6; peripheral blood mononuclear cells, MNCs) were collected at the University Hospital Heidelberg, Germany. Informed consent was obtained in accordance with the Declaration of Helsinki. Sample collection and analysis was approved by the ethics committee of the University of Heidelberg (S-254/2016). Blood was separated by a Ficoll gradient (GE Healthcarey), and cells were cryopreserved. Drug sensitivity screening was performed in 384-well format (Greiner Bio One) with 10 different prodrug […]
4x10^4 cells per well. Cells were cultured in RPMI-1640 (Invitrogen) supplemented with penicillin/streptomycin (Invitrogen), L-glutamine (Invitrogen) and 10% pooled and heat inactivated AB-type human serum (Sigma-Aldrich). Cell viability was assessed by quantification of ATP (CellTiter Glo®, Promega) 48 hours after drug application.
Luminescence was measured on a Tecan Infinite F200 Microplate Reader. Viability was calculated as % of solvent (DMSO) treated control. Representative plots of cell viability

[2] = test system: human ovarian carcinoma, Burkitt’s lymphoma, pancreatic carcinoma and T-cell leukemia cells; assay: Anticancer activity, summary over four cancer cell lines; format: cell-based; settings: read-out: IC50 values, range over cell lines
Procedure: Determination of viability of cells in the presence of prodrugs and controls A2780 and BL-2 cells The medium was removed, and the cells were washed two times with DPBS, trypsinated, and resuspended in RPMI 1640 medium (A2780) supplemented with 5% FBS (for 24 h and 48 h assay) or 10% FBS (for 96 h assay) , 1% L-glutamine, and 1% penicillin/streptomycin.
A2780 cells: This suspension was spread in the wells of a 96 -well microtiter plate (25000 cells for A2780 per well per 100 μL) and left standing at 37 °C in the chamber filled with CO2 (5%) for overnight. […] Afterward, the intensity of the absorbance at 590 nm was measured.
MTT is converted in live cells to blue dye with the absorbance maximum λ max at 590 nm.
The absorbance at 690 nm was taken as a baseline value. The baseline corrected absorbance at 590 nm (A(590 nm) − A(690 nm)) was applied to calculate the relative number of viable cells. […]
AsPC1 cells The cells (20.000/well) were seeded in a 12-well plate and incubated for 24 h. […] Viable cells were determined based on the morphological parameters by using flow cytometry (Table S4). […]
Jurkat cells The cells were counted in MUSE Cell Analyzer using MUSE® Count &Viability Assay Kit (Merck-Millipore, Billerica, MA, USA) and adjusted to a density of 1.0 x 10^5/ml in RPMI 1640 medium (with 10% FCS and 1% glutamine). […]

## CC1(C)OB(c2ccc(COC(=O)N(Cc3cn(Cc4ccc(Cn5cc(Cc6ccccc6)nn5)cc4)nn3)[c-]3cccc3)cc2)OC1(C)C.[Fe+2].c1cc[cH-]c1 [2c]
[1]; primary CLL cells from six patients
  IC50: 6 ± 2 µM
[1]; viability of CLL vs MNC, for 2c at 3.3 and 10 µM
  cancer cell specificity, primary CLL cells vs MNCs: significantly more toxic in the cancer cells than in the normal cells
[2]
  IC50: 5 to 7.1 µM
